According to US10640545B2 (THE GOVERNORS OF THE UNIVERSITY OF ALBERTA, priority 2017, dated 2020):
Where a SMILES comes first, the peptide text is derived from it. [ ]: non-standard residue; d: D form. The star is where a group is joined. Phe(4-Br) = N[C@@H](Cc1ccc(Br)cc1)C(=O)O; Palmitoyl = CCCCCCCCCCCCCCCC(=O)*; NMeL = CN[C@@H](CC(C)C)C(=O)O; Nle = CCCC[C@H](N)C(=O)O; Aib = CC(C)(N)C(=O)O

Assays:
[1] = target: T1, recombinant human APJ-Ga16 receptor (Homo sapiens, UniProt P35414); assay: Ca2+ mobilization assay (FLIPR, Chem-5-APJ cells); assay type: cell-based; conditions: among peptides 56-59
T1 construct: host or cells: Chem-5-APJ cells
T1 sequence (P35414 1-380): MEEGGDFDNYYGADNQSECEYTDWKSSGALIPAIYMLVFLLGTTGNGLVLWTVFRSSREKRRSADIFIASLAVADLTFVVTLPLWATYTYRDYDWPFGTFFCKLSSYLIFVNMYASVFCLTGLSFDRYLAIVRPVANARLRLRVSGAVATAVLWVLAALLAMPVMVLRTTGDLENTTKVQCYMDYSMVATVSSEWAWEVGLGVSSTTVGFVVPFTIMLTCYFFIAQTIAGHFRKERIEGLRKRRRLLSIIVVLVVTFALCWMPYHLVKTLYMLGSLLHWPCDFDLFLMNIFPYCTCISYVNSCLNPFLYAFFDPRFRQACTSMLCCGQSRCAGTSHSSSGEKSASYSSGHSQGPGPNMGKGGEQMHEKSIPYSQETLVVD
Method: To study the extent to which the newly derived peptides trigger APJ-receptor activation, a fluorescence coupled calcium release assay including a recombinant human APJ-Ga16 receptor cell line was used.
Chem-5-APJ cells (Millipore, USA) were seeded (30 000 cells/well) into Nunclon Delta Surface 96-well, clear-bottom microtitre plates (Thermo Scientific, Denmark) 24 hours prior to assay. Cells were loaded for 1 hour with FLIPR Calcium 6-QF fluorescent indicator dye (Molecular Devices, USA) in assay buffer [Hanks balanced salt solution (HBSS), 20 mM HEPES, 0.2% DMSO, 2.5 mM probenecid, pH 7.6], washed three times with assay buffer, then returned to the incubator for 10 min before assay on a fluorimetric imaging plate reader (FLIPR; Molecular Devices, Sunnyvale, Calif., USA). Maximum change in fluorescence over baseline was used to determine agonist response. Dose—response curve data were fitted to a four-parameter logistic equation using PRISM (Graph Pad, USA) from which pEC50 values were calculated. FIGS. 14A-G show the concentration response curves of apelin peptides.

anesthetized mice = assay: Blood pressure assay in anesthetized mice; assay type: in vivo; conditions: 1.4 μM/kg body weight injected
Summary of the method: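 Mice were anaesthetized with 1.5% isoflurane/oxygen and kept at 36 °C. Peptide (1.4 μM/kg body weight) or saline was injected via the right jugular vein. Arterial pressure and heart rate were recorded continuously through a catheter in the aorta via the right carotid artery over 60 min and reported as SBP, DBP, MABP and HR.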

For CCCCCCCCCCCCCCCC(=O)N[C@@H](CCCCN)C(=O)N[C@@H](Cc1ccccc1)C(=O)N[C@@H](CCCNC(=N)N)C(=O)N[C@@H](CCCNC(=N)N)C(=O)N[C@@H](CCC(N)=O)C(=O)N[C@@H](CCCNC(=N)N)C(=O)N1CCC[C@H]1C(=O)N[C@@H](CCCNC(=N)N)C(=O)N(C)[C@@H](CC(C)C)C(=O)N[C@@H](CO)C(=O)N[C@@H](Cc1c[nH]cn1)C(=O)N[C@@H](CCCCN)C(=O)NCC(=O)N1CCC[C@H]1C(=O)N[C@@H](CCCC)C(=O)NC(C)(C)C(=O)N[C@@H](Cc1ccc(Br)cc1)C(=O)O [Peptide 58] (Palmitoyl-KFRRQRPR[NMeL]SHKGP[Nle][Aib][Phe(4-Br)]-OH; C-terminus assumed), the “Ca2+ mobilization (in words)” value [1] was “lowest Ca^2+ mobilization” and the “effect on heart rate (HR)” value (anesthetized mice) was “heart rate increasing effect is restored”.
